Assay results taken from publication PMC7029851, “Antibacterial activity of novel dual bacterial DNA type II topoisomerase inhibitors” (PLoS ONE, 2020).
Values after ≈ are worked out from the molar mass of the structure shown. Where two headings read alike, the source gives them in different places.

Experiments:
[1] = system: S. aureus clinical isolates (n = 10); test: microbe, parasite or virus in culture; assay type: cell-based, Staphylococcus aureus
Description: (§1) The bacterial reference strains used in this study were purchased from ATCC (American Type Culture Collection) via LGC Standards (Middlesex, UK). […] Clinical MDR isolates were provided by Aptuit, the IHMA Europa Sàrl repository (Epalinges, Switzerland) and the Statens Serum Institute (Copenhagen, Denmark).
(§2) MICs were determined by the broth microdilution method (the agar dilution method was used only for N. gonorrhoeae) according to CLSI guidelines.
(§3) The results obtained using clinical isolates are reported as MIC50 and MIC90 values.

CYP2C19 = CYP2C19 (Homo sapiens, UniProt P33261); test: Inhibition of P450 isoenzymes; assay type: in vitro ADME
Sequence of CYP2C19 (P33261 whole entry): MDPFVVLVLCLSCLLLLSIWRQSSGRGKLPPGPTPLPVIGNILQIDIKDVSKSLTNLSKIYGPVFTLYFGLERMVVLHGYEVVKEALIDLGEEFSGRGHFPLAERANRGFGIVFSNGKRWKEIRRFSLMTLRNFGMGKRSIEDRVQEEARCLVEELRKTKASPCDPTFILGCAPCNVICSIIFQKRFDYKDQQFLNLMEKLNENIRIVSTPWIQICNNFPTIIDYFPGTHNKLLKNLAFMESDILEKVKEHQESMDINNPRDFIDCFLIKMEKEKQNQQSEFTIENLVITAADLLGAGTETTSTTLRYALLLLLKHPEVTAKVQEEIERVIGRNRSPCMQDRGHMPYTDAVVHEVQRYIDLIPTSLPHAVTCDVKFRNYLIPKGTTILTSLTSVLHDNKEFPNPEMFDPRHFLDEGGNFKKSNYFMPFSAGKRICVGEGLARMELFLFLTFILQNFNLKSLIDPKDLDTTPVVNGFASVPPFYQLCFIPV
Excerpt: (§4) Inhibition of P450 isoenzymes.

[2] = system: CYP1A, CYP2B6, CYP2C8, CYP2C9, CYP2D6 and CYP3A4; test: Inhibition of P450 isoenzymes; assay type: in vitro ADME; settings: human, read-out: % inhibition of CYP450 isoenzymes other than CYP2C19
Excerpt: as §4

A. baumannii ATCC 19606 = test: MIC, broth microdilution; assay type: cell-based; settings: Acinetobacter baumannii, ATCC19606; A. baumannii ATCC 19606, ciprofloxacin-susceptible
Description: as §2

S. pyogenes APV00083 = test: MIC, broth microdilution; assay type: cell-based; settings: Streptococcus pyogenes; S. pyogenes APV00083, ciprofloxacin-susceptible
Description: as §2

S. pyogenes APV00074 = test: MIC, broth microdilution; assay type: cell-based; settings: Streptococcus pyogenes; S. pyogenes APV00074, ciprofloxacin-susceptible
Description: as §2

A. baumannii APV00473 = test: MIC, broth microdilution; assay type: cell-based; settings: Acinetobacter baumannii; A. baumannii APV00473, ciprofloxacin-resistant
Description: as §2

E. coli 4SI = test: MIC, broth microdilution; assay type: cell-based; settings: Escherichia coli, ciprofloxacin-resistant
Description: as §2

E. coli ATCC 25922 [3] = test: Minimal bactericidal concentration; assay type: cell-based, Escherichia coli
Description: (§5) Minimal bactericidal concentrations (MBCs) were determined according to the procedure described by Knapp. Viable counts were performed after plates were incubated at 37°C for 24 hours. The MBC was defined as the lowest concentration that reduced the viability of the initial bacterial inoculum by ≥99.9%.

C. difficile ATCC 700057 = test: MIC, broth microdilution; assay type: cell-based, Clostridium difficile; settings: Clostridioides difficile, ATCC700057
Description: MICs were determined by the broth microdilution method (the agar dilution method was used only for N. gonorrhoeae) according to CLSI guidelines. […] The MIC values of antibiotics used in clinical practice were interpreted according to the susceptibility interpretive criteria reported in the appropriate CLSI Tables (M100-S25, CLSI, 2015).

[4] = system: A. baumannii clinical isolates (n = 10); test: microbe, parasite or virus in culture; assay type: cell-based, Acinetobacter baumannii
Description: as §1, §2, §3

[5] = system: C. difficile clinical isolates (n = 21); test: MIC, multidrug-resistant clinical isolates; assay type: cell-based, Clostridium difficile; settings: Clostridioides difficile, C. difficile clinical isolates (n = 21); for MIC50: read-out: MIC50; for MIC90: read-out: MIC90; for MIC: read-out: MIC range
Description: as §1, §2, §3

S. aureus ATCC 29213 [6] = assay type: cell-based, Staphylococcus aureus
[7] = system: E. coli clinical isolates (n = 36); test: MIC, multidrug-resistant clinical isolates; assay type: cell-based, Escherichia coli; settings: Escherichia coli, E. coli MDR clinical isolates (n = 36); for MIC50: read-out: MIC50; for MIC90: read-out: MIC90
Description: as §1, §2, §3

S. aureus ATCC 29213 [8] = test: Minimal bactericidal concentration; assay type: cell-based, Staphylococcus aureus
Description: as §5

S. aureus BAA-1720 = test: Minimal bactericidal concentration; assay type: cell-based, Staphylococcus aureus
Description: as §5

hERG channel = target: T1, hERG channel (Homo sapiens, UniProt Q12809); test: hERG automated patch clamp assay; assay type: cell-based; settings: CHO-K1, read-out: IC50 against hERG channels
T1 construct: expressed in transfected cells; host or cells: CHO-K1
T1 sequence (Q12809 whole entry): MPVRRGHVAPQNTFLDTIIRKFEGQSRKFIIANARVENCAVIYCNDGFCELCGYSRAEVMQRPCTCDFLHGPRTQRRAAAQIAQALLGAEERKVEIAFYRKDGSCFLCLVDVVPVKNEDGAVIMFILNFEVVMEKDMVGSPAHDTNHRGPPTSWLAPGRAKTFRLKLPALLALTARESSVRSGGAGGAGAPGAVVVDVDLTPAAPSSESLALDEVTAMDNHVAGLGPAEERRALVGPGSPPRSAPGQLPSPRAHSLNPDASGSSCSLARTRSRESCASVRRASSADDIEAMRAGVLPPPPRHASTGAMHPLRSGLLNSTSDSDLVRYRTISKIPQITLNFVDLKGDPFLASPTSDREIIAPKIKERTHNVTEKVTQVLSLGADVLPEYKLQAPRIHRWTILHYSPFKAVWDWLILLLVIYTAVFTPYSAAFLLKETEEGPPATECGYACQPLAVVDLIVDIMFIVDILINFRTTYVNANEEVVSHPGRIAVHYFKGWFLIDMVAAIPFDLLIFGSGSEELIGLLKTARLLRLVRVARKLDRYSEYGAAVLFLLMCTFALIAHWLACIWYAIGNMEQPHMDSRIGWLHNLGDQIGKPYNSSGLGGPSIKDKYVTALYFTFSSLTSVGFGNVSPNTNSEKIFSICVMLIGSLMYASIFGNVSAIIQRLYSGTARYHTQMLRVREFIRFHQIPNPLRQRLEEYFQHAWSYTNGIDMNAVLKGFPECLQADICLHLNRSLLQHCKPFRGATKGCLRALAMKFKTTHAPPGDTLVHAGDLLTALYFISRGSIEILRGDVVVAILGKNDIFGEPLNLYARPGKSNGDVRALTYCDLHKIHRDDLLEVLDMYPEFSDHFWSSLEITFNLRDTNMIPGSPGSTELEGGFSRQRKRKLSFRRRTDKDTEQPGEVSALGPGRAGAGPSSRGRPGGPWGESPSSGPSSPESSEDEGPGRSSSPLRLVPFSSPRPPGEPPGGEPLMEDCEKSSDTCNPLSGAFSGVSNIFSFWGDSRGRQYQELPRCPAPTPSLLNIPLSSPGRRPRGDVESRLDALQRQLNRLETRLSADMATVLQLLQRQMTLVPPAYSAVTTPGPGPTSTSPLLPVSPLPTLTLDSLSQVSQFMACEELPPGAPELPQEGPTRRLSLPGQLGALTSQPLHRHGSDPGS
Excerpt: hERG automated patch clamp assay. The human recombinant ERG CHO-K1 cell line was used in an automated patch clamp assay (qPatch system) to evaluate the hERG channel blockade potential of compounds 1 and 2 [36]. Concentration (log) response curves were fitted to a logistic equation to generate estimates of the 50% inhibitory value.

[9] = system: H. influenzae AcrA- mutant; test: microbe, parasite or virus in culture; assay type: cell-based; settings: Haemophilus influenzae
Description: as §1, §2

S. aureus ATCC 29213 [10] = test: Post-antibiotic effect (PAE); assay type: cell-based, Staphylococcus aureus; settings: 1-hour exposure, range over 1×, 4× and 16× MIC
Description: A drug-free control was included in each experiment. After being exposed to the drug for 1 hour, viable counts were conducted in triplicate by spotting aliquots (10 μl) of suitable dilutions onto MHA plates. The drugs were removed by diluting the bacterial cultures (1:1000) in Cation-Adjusted Mueller-Hinton Broth (CAMHB; Sigma-Aldrich). The diluted cultures were incubated in a shaking bath at 37°C. To monitor the ongoing suppression of bacterial growth over time (5 hours), aliquots from each broth culture were periodically collected, diluted and plated to perform subsequent viable counts (in triplicate).

E. coli ATCC 25922 [11] = test: Time-kill assay; assay type: cell-based, Escherichia coli; settings: 1× to 4× MIC, over 24 hours
Description: Time-kill experiments were performed according to the procedure reported by Knapp. […] A drug-free control was included in each experiment. The bacterial cultures were standardized to obtain an initial inoculum that ranged from 5×10^5 to 5×10^6 CFU/ml. The cultures were incubated at 37°C in a shaking bath. At 0, 2, 4, 8 and 24-hour intervals, viable counts were performed by spotting (in triplicate) 10 μl aliquots of suitable dilutions of the cultures onto Mueller-Hinton agar (MHA, Oxoid, Basingstoke, UK) plates. After incubation at 37°C for 24 hours, the bactericidal activity, namely, the ability to reduce the initial inoculum by 3 log10 CFU/ml, was assessed for each tested concentration over time.

[12] = S. aureus MDR clinical isolates (n = 10)

O=C1COc2ncc(F)cc2N1[C@H]1CC[C@H](NCc2cc3c(=O)oc4ccc(F)cc4c3[nH]2)CC1 [Compound 1, 8-fluoro-2-({[trans-4-(7-fluoro-2-oxo-2,3-dihydro-1H-pyrido[2,3-b][1,4]oxazin-1-yl)cyclohexyl]amino}methyl)[1]benzopyrano[4,3-b]pyrrol-4(1H)-one]
MIC50 [1, 12]: 0.125 µg/mL (≈ 0.26 µM) | MIC90 [1, 12]: 0.5 µg/mL (≈ 1.04 µM) | MIC range [1, 12]: 0.12 to 0.5 µg/mL | MIC ([1]; Staphylococcus aureus, MRSA, S. aureus APV0063, MRSA): 0.12 µg/mL (≈ 0.25 µM) | MIC ([1]; Staphylococcus aureus, MRSA, S. aureus APV0064, MRSA): 0.12 µg/mL (≈ 0.25 µM) | MIC ([1]; Staphylococcus aureus, MRSA, S. aureus APV0065, MRSA): 0.12 µg/mL (≈ 0.25 µM) | MIC ([1]; Staphylococcus aureus, S. aureus APV00045, M (macrolide resistance)): 0.5 µg/mL (≈ 1.04 µM) | MIC ([1]; Staphylococcus aureus, S. aureus APV0048, MLSi): 0.25 µg/mL (≈ 0.52 µM) | MIC ([1]; Staphylococcus aureus, S. aureus APV0049, MLSi): 0.5 µg/mL (≈ 1.04 µM) | MIC ([1]; Staphylococcus aureus, S. aureus APV0052, MLSc): 0.5 µg/mL (≈ 1.04 µM) | MIC ([1]; Staphylococcus aureus, S. aureus APV0053, MLSc): 0.25 µg/mL (≈ 0.52 µM) | MIC ([1]; Staphylococcus aureus, S. aureus APV00280, M (macrolide resistance)): 0.12 µg/mL (≈ 0.25 µM) | MIC ([1]; Staphylococcus aureus, S. aureus APV00281, M (macrolide resistance)): 0.12 µg/mL (≈ 0.25 µM) | MIC50 ([1]; Staphylococcus aureus, S. aureus MDR clinical isolates (n = 10), read-out: MIC50): 0.12 µg/mL (≈ 0.25 µM) | MIC90 ([1]; Staphylococcus aureus, S. aureus MDR clinical isolates (n = 10), read-out: MIC90): 0.5 µg/mL (≈ 1.04 µM) | inhibition at 10 µM (CYP2C19): 52% | inhibition at 10 µM [2]: ≤ 35% | MIC (A. baumannii ATCC 19606): ≤ 0.06 µg/mL | MIC (S. pyogenes APV00083): 1 µg/mL (≈ 2.08 µM) | MIC (S. pyogenes APV00074): 0.5 µg/mL (≈ 1.04 µM) | MIC (A. baumannii APV00473): ≤ 0.06 µg/mL | MIC (E. coli 4SI): 0.25 µg/mL (≈ 0.52 µM) | MBC/MIC (E. coli ATCC 25922 [3]): 2 | MBC (E. coli ATCC 25922 [3]; Escherichia coli, ATCC25922, ≥99.9% reduction of inoculum): 1 µg/mL (≈ 2.08 µM) | MIC (C. difficile ATCC 700057): 1 µg/mL (≈ 2.08 µM) | MIC range [4]: ≤0.06 to 0.12 µg/mL | MIC50 ([4]; Acinetobacter baumannii): 0.12 µg/mL (≈ 0.25 µM) | MIC90 ([4]; Acinetobacter baumannii): 0.12 µg/mL (≈ 0.25 µM) | MIC50 [5]: 1 µg/mL (≈ 2.08 µM) | MIC90 [5]: 1 µg/mL (≈ 2.08 µM) | MIC [5]: 0.25 to 2 µg/mL (≈ 0.52 to 4.16 µM) | In vitro frequency of resistant mutants (S. aureus ATCC 29213 [6]; S. aureus ATCC 29213, 2×MIC): TNTC | In vitro frequency of resistant mutants (S. aureus ATCC 29213 [6]; S. aureus ATCC 29213, 4×MIC): 1.4×10^−7 | MIC [7]: 0.25 to 16 µg/mL (≈ 0.52 to 33.3 µM) | MIC50 [7]: 1 µg/mL (≈ 2.08 µM) | MIC90 [7]: 1 µg/mL (≈ 2.08 µM) | MBC/MIC (S. aureus ATCC 29213 [8]): 16 | MBC (S. aureus ATCC 29213 [8]; Staphylococcus aureus, ATCC29213, ≥99.9% reduction of inoculum): 4 µg/mL (≈ 8.33 µM) | MBC/MIC (S. aureus BAA-1720): 2 | MBC (S. aureus BAA-1720; Staphylococcus aureus, BAA1720, ≥99.9% reduction of inoculum): 1 µg/mL (≈ 2.08 µM) | IC50 (hERG channel): 8.9 µM | MIC [9]: ≤ 0.016 µg/mL | PAE (S. aureus ATCC 29213 [10]): 54 to 58 min | Bactericidal activity in time-kill (reduction of 3 log10 CFU/ml) (E. coli ATCC 25922 [11]): bactericidal effect

Cl.O=c1oc2ccc(F)cc2c2[nH]c(CN[C@H]3CC[C@H](n4c(=O)ccc5ccc(F)cc54)CC3)cc12 [Compound 6, 8-fluoro-2-({[trans-4-(7-fluoro-2-oxoquinolin-1(2H)-yl)cyclohexyl]amino}methyl)[1]benzopyrano[4,3-b]pyrrol-4(1H)-one hydrochloride]
MIC (C. difficile ATCC 700057): 0.5 µg/mL | MIC50 [5]: 0.25 µg/mL | MIC90 [5]: 0.25 µg/mL | MIC [5]: 0.06 to 0.25 µg/mL | MIC [7]: 0.25 to 4 µg/mL | MIC50 [7]: 2 µg/mL | MIC90 [7]: 4 µg/mL
